pIC50: −log10 of the molar value. Strand notation (5' to 3'): a small letter for the sugar, then the base; units joined by * are phosphorothioate-linked, units joined directly phosphodiester-linked; [ ] holds rarer units or linkages, { } end groups; capitals alone tell only the bases. e = 2'-O-(2-methoxyethyl) (MOE); [5mC] = 5-methylcytosine; d = 2'-deoxy (DNA)
Tests used:
human PKK mRNA [1] = experiment: Antisense inhibition of human PKK mRNA in HepaRG cells, 5,000 nM (Example 2); assay type: cell-based
How it was run: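 HepaRG cells, 20,000 per well, were electroporated with 5,000 nM MOE gapmer (phosphorothioate, 5-methylcytosine) and incubated about 24 hours. PKK mRNA was quantified by qRT-PCR with primer probe set RTS3454, normalized to RIBOGREEN total RNA, and expressed as percent inhibition versus untreated controls.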

human PKK mRNA [2] = experiment: Dose-dependent antisense inhibition of human PKK in HepaRG cells, 0.19-5.00 uM (Example 5); assay type: cell-based; conditions: for percent inhibition of PKK mRNA, 0.19 μM: 0.19 μM antisense oligonucleotide; for percent inhibition of PKK mRNA, 0.56 μM: 0.56 μM antisense oligonucleotide; for percent inhibition of PKK mRNA, 1.67 μM: 1.67 μM antisense oligonucleotide; for percent inhibition of PKK mRNA, 5.00 μM: 5.00 μM antisense oligonucleotide
How it was run: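 HepaRG cells (20,000/well) were electroporated with antisense oligonucleotide at 0.19, 0.56, 1.67 and 5.00 μM and treated for about 16 hours. PKK mRNA was quantified by qRT-PCR with primer probe set RTS3454, normalised to RIBOGREEN total RNA, and IC50 was derived per oligonucleotide.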

[3] = Table 13, human PKK mRNA in HepaRG cells, 5-10-5 gapmers
[4] = HepaRG cells, electroporation, approximately 16 hours, Table 37
[5] = 4 point dose response, HepaRG cells, Table 37
[6] = HepaRG cells, electroporation, approximately 16 hours, Table 41
[7] = 4 point dose response, HepaRG cells, Table 41
[8] = Table 34, HepaRG, electroporation, ~16 h
[9] = Table 34, PKK mRNA, HepaRG, electroporation, ~16 h
[10] = HepaRG cells, electroporation, approximately 16 hours, Table 38
[11] = 4 point dose response, HepaRG cells, Table 38
[12] = human PKK mRNA in HepaRG cells, 5-10-5 gapmers, Table 14
[13] = HepaRG cells, electroporation, approximately 16 hours, Table 40
[14] = 4 point dose response, HepaRG cells, Table 40

546739 (eA*eT*eT*e[5mC]*eG*dG*dT*dG*dT*d[5mC]*dT*dT*dT*dA*d[5mC]*eT*eG*eG*e[5mC]*eT; antisense) [compound 546739]
% inhibition (human PKK mRNA [1]; [3]): 89%
percent inhibition of PKK at 0.19 μM (human PKK mRNA [2]; [4]): 35%
percent inhibition of PKK at 0.56 μM (human PKK mRNA [2]; [4]): 55%
percent inhibition of PKK at 1.67 μM (human PKK mRNA [2]; [4]): 57%
percent inhibition of PKK at 5.00 μM (human PKK mRNA [2]; [4]): 79%
pIC50 (human PKK mRNA [2]; [5]): 6.22
percent inhibition of PKK mRNA, 0.19 μM (human PKK mRNA [2]; HepaRG cells): 4%
percent inhibition of PKK mRNA, 0.56 μM (human PKK mRNA [2]; HepaRG cells): 62%
percent inhibition of PKK mRNA, 1.67 μM (human PKK mRNA [2]; HepaRG cells): 84%
percent inhibition of PKK mRNA, 5.00 μM (human PKK mRNA [2]; HepaRG cells): 86%
pIC50 (human PKK mRNA [2]; HepaRG cells, 0.19-5.00 μM): 6.22

547445 (antisense eG*e[5mC]*e[5mC]*eA*e[5mC]*dT*dA*dT*dA*dG*dA*dT*dG*d[5mC]*dG*e[5mC]*e[5mC]*eA*eA*eA) [compound 547445]
% inhibition (human PKK mRNA [1]; Table 8, HepaRG cells, electroporation with 5,000 nM antisense oligonucleotide, approx. 24 hours, PKK mRNA by RT-PCR (RTS3454), relative to untreated control cells): 97%
percent inhibition of PKK at 5.00 μM (human PKK mRNA [2]; [6]): 91%
percent inhibition of PKK at 0.19 0μM (human PKK mRNA [2]; [6]): 80%
percent inhibition of PKK at 0.56 0μM (human PKK mRNA [2]; [6]): 87%
percent inhibition of PKK at 1.67 1μM (human PKK mRNA [2]; [6]): 98%
pIC50 (human PKK mRNA [2]; [7]): > 6.70
percent inhibition of PKK at 0.19 μM (human PKK mRNA [2]; [8]): 41%
percent inhibition of PKK at 0.56 μM (human PKK mRNA [2]; [8]): 75%
percent inhibition of PKK at 1.67 μM (human PKK mRNA [2]; [8]): 82%
percent inhibition of PKK at 5.00 μM (human PKK mRNA [2]; [8]): 88%
pIC50 (human PKK mRNA [2]; [9]): 6.70

546198 (antisense eT*e[5mC]*eT*eT*e[5mC]*dA*dA*d[5mC]*dA*d[5mC]*dT*dG*d[5mC]*dT*dA*eA*e[5mC]*e[5mC]*eT*eT) [compound 546198]
% inhibition (human PKK mRNA [1]; HepaRG cells, electroporation with 5,000 nM antisense oligonucleotide, approximately 24 hours, PKK mRNA by RT-PCR (RTS3454), relative to untreated control cells, Table 6 experiment): 85%
percent inhibition of PKK at 0.19 μM (human PKK mRNA [2]; [10]): 7%
percent inhibition of PKK at 0.56 μM (human PKK mRNA [2]; [10]): 3%
percent inhibition of PKK at 1.67 μM (human PKK mRNA [2]; [10]): 45%
percent inhibition of PKK at 5.00 μM (human PKK mRNA [2]; [10]): 92%
pIC50 (human PKK mRNA [2]; [11]): 5.89

547615 (antisense eT*e[5mC]*e[5mC]*eT*eA*dT*dA*dT*d[5mC]*dA*d[5mC]*dT*dG*dT*dA*e[5mC]*e[5mC]*eT*eG*eT) [compound 547615]
% inhibition (human PKK mRNA [1]; [12]): 84%
percent inhibition of PKK at 0.19 μM (human PKK mRNA [2]; [10]): 20%
percent inhibition of PKK at 0.56 μM (human PKK mRNA [2]; [10]): 26%
percent inhibition of PKK at 1.67 μM (human PKK mRNA [2]; [10]): 41%
percent inhibition of PKK at 5.00 μM (human PKK mRNA [2]; [10]): 84%
pIC50 (human PKK mRNA [2]; [11]): 5.85

546832 (e[5mC]*eT*e[5mC]*eT*eA*dA*d[5mC]*dA*dG*dT*dA*dT*d[5mC]*dA*d[5mC]*eT*eG*eT*eA*e[5mC]; antisense) [compound 546832]
% inhibition (human PKK mRNA [1]; [3]): 88%
percent inhibition of PKK at 0.19 μM (human PKK mRNA [2]; [4]): 19%
percent inhibition of PKK at 0.56 μM (human PKK mRNA [2]; [4]): 38%
percent inhibition of PKK at 1.67 μM (human PKK mRNA [2]; [4]): 70%
percent inhibition of PKK at 5.00 μM (human PKK mRNA [2]; [4]): 95%
pIC50 (human PKK mRNA [2]; [5]): 6.10
percent inhibition of PKK mRNA, 0.19 μM (human PKK mRNA [2]; HepaRG cells): 36%
percent inhibition of PKK mRNA, 0.56 μM (human PKK mRNA [2]; HepaRG cells): 49%
percent inhibition of PKK mRNA, 1.67 μM (human PKK mRNA [2]; HepaRG cells): 85%
percent inhibition of PKK mRNA, 5.00 μM (human PKK mRNA [2]; HepaRG cells): 97%
pIC50 (human PKK mRNA [2]; HepaRG cells, 0.19-5.00 μM): 6.40

547493 (antisense eT*e[5mC]*eT*eG*eA*dG*d[5mC]*dT*dT*dT*dT*d[5mC]*d[5mC]*dA*dT*e[5mC]*eA*e[5mC]*eT*eG) [compound 547493]
% inhibition (human PKK mRNA [1]; HepaRG cells, electroporation, 5,000 nM antisense oligonucleotide, approx. 24 hours, primer probe set RTS3454, relative to untreated control cells, Table 11): 72%
percent inhibition of PKK at 0.19 μM (human PKK mRNA [2]; [13]): 0%
percent inhibition of PKK at 0.56 μM (human PKK mRNA [2]; [13]): 26%
percent inhibition of PKK at 1.67 μM (human PKK mRNA [2]; [13]): 64%
percent inhibition of PKK at 5.00 μM (human PKK mRNA [2]; [13]): 77%
pIC50 (human PKK mRNA [2]; [14]): 5.89

548756 (antisense eG*eT*eA*eT*d[5mC]*dA*d[5mC]*dT*dG*dT*dA*d[5mC]*dT*eA*eG*eT*eT) [compound 548756]
% inhibition (human PKK mRNA [1]; human PKK mRNA, HepaRG cells, 5,000 nM antisense oligonucleotide, Table 18): 81%
percent inhibition of PKK at 0.19 μM (human PKK mRNA [2]; [13]): 0%
percent inhibition of PKK at 0.56 μM (human PKK mRNA [2]; [13]): 4%
percent inhibition of PKK at 1.67 μM (human PKK mRNA [2]; [13]): 16%
percent inhibition of PKK at 5.00 μM (human PKK mRNA [2]; [13]): 86%
pIC50 (human PKK mRNA [2]; [14]): < 5.30

547587 (e[5mC]*eT*eA*eT*eA*dA*d[5mC]*dA*dG*dT*dA*dT*d[5mC]*dA*d[5mC]*eT*eG*eT*e[5mC]*e[5mC]; antisense) [compound 547587]
% inhibition (human PKK mRNA [1]; [12]): 96%
percent inhibition of PKK at 5.00 μM (human PKK mRNA [2]; [6]): 97%
percent inhibition of PKK at 0.19 0μM (human PKK mRNA [2]; [6]): 38%
percent inhibition of PKK at 0.56 0μM (human PKK mRNA [2]; [6]): 64%
percent inhibition of PKK at 1.67 1μM (human PKK mRNA [2]; [6]): 91%
pIC50 (human PKK mRNA [2]; [7]): 6.52
percent inhibition of PKK at 0.19 μM (human PKK mRNA [2]; [8]): 20%
percent inhibition of PKK at 0.56 μM (human PKK mRNA [2]; [8]): 62%
percent inhibition of PKK at 1.67 μM (human PKK mRNA [2]; [8]): 84%
percent inhibition of PKK at 5.00 μM (human PKK mRNA [2]; [8]): 86%
pIC50 (human PKK mRNA [2]; [9]): 6.30

— US11840686B2, “Modulation of prekallikrein (PKK) expression” (Ionis Pharmaceuticals, Inc., priority 2013, dated 2023)
